The values that follow come from patent US20080261977A1, “Pyrimidine Derivatives as Cannabinoid Receptor Modulators” (priority 2004, published 2008).

The target in test [1] is T1, human cannabinoid CB2 receptor (Homo sapiens, UniProt P34972).
T1 construct: expressed in transfected cells; host or cells: Saccharomyces cerevisiae strain MMY23 (cassette integrated at the ura3 locus; chimeric Gpa1/Gαi3)
The test is described as follows: Cannabinoid CB2 receptor agonist activity, yeast (Saccharomyces cerevisiae) cells expressing the receptor, FDGlu fluorescence. It counts as cell-based. To be noted: for Emax: read-out: efficacy (Emax relative to HU210) at the cloned human cannabinoid CB2 receptor. The protocol: The cannabinoid CB2 receptor agonist activity of the compounds of formula (I) was determined in accordance with the following experimental method.
(§1) Yeast (Saccharomyces cerevisiae) cells expressing the human cannabinoid CB2 receptor were generated by integration of an expression cassette into the ura3 chromosomal locus of yeast strain MMY23. This cassette consisted of DNA sequence encoding the human CB2 receptor flanked by the yeast GPD promoter to the 5′ end of CB2 and a yeast transcriptional terminator sequence to the 3′ end of CB2. MMY23 expresses a yeast/mammalian chimeric G-protein alpha subunit in which the C-terminal 5 amino acids of Gpa1 are replaced with the C-terminal 5 amino acids of human Gαi3 (as described in Brown et al. (2000), Yeast 16:11-22). Cells were grown at 30° C. in liquid Synthetic Complete (SC) yeast media (Guthrie and Fink (1991), Methods in Enzymology, Vol. 194) lacking uracil, tryptophan, adenine and leucine to late logarithmic phase (approximately 6 OD600/ml).
(§2) Agonists were prepared as 10 mM stocks in DMSO. EC50 values (the concentration required to produce 50% maximal response) were estimated using dilutions of between 3- and 5-fold (BiomekFX, Beckman) into DMSO. Agonist solutions in DMSO (1% final assay volume) were transferred into black, clear bottom, microtitre plates from NUNC (96- or 384-well). Cells were suspended at a density of 0.2 OD600/ml in SC media lacking histidine, uracil, tryptophan, adenine and leucine and supplemented with 10 mM 3-aminotriazole, 0.1M sodium phosphate pH 7.0, and 20M fluorescein di-β-D-glucopyranoside (FDGlu). This mixture (50 ul per well for 384-well plates, 200 ul per well for 96-well plates) was added to agonist in the assay plates (Multidrop 384, Labsystems). After incubation at 30° C. for 24 hours, fluorescence resulting from degradation of FDGlu to fluorescein due to exoglucanase, an endogenous yeast enzyme produced during agonist-stimulated cell growth, was determined using a Spectrofluor microtitre plate reader (Tecan; excitation wavelength: 485 nm; emission wavelength: 535 nm). Fluorescence was plotted against compound concentration and iteratively curve fitted using a four parameter fit to generate a concentration effect value. Efficacy (Emax) was calculated from the equation
Emax=Max[compound X]−Min[compound X]/Max[HU210]−Min[HU210]×100%
where Max[compound X] and Min[compound X] are the fitted maximum and minimum respectively from the concentration effect curve for compound X, and Max[HU210] and Min[HU210] are the fitted maximum and minimum respectively from the concentration effect curve for (6aR,10aR)-3-1,1′-Dimethylheptyl)-6a,7,10,10a-tetrahydro-1-hydroxy-6,6-dimethyl-6H-dibenzo[b,d]pyran-9-methanol (HU210; available from Tocris). Equieffective molar ratio (EMR) values were calculated from the equation
Where EC50[compound X] is the EC50 of compound X and EC50[HU210] is the EC50 of HU210.

Test [2] has as its target T2, human cannabinoid CB1 receptor (Homo sapiens, UniProt P21554).
T2 construct: expressed in transfected cells; host or cells: Saccharomyces cerevisiae strain MMY23 (cassette integrated at the ura3 locus; chimeric Gpa1/Gαi3)
The test is described as follows: Cannabinoid CB1 receptor agonist activity, yeast (Saccharomyces cerevisiae) cells expressing the receptor, FDGlu fluorescence. It is filed as cell-based. How it is done:
The cannabinoid CB1 receptor agonist activity of the compounds of formula (I) was determined in accordance with the following experimental method.
as §1, with “cannabinoid CB1” for “cannabinoid CB2”, “human CB1” for “human CB2”, “of CB 1” for “of CB2”, “of CB1.” for “of CB2.”, “of Gpal” for “of Gpa1”
as §2, with “20 μM” for “20M”, “equation […]” for “equation”
where Max[compound X] and Min[compound X] are the fitted maximum and minimum respectively from the concentration effect curve for compound X, and Max[HU210] and Min[HU210] are the fitted maximum and minimum respectively from the concentration effect curve for (6aR,10aR)-3-(1,1′-Dimethylheptyl)-6a,7,10,10a-tetrahydro-1 hydroxy-6,6-dimethyl-6H-dibenzo[b,d]pyran-9-methanol (HU210; available from Tocris). Equieffective molar ratio (EMR) values were calculated from the equation […]

Setting [3] is: yeast agonist assay, read-out: EC50 at the cloned human cannabinoid CB2 receptor.

Structures can show the parent of a compound that is named as a salt. Where two headings read alike, the source gives them in different places.

T1 sequence (P34972 whole entry): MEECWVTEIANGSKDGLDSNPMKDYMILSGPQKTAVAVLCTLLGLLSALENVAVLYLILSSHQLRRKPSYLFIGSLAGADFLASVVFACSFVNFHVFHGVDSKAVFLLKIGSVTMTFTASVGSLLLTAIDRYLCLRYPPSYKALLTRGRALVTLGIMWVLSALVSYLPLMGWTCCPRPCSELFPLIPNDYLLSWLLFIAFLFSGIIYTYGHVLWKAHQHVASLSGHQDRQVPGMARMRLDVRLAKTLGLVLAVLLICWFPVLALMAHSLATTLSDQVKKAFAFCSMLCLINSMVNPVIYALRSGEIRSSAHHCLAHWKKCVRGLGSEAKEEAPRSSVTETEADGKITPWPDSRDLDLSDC
T2 sequence (P21554 whole entry): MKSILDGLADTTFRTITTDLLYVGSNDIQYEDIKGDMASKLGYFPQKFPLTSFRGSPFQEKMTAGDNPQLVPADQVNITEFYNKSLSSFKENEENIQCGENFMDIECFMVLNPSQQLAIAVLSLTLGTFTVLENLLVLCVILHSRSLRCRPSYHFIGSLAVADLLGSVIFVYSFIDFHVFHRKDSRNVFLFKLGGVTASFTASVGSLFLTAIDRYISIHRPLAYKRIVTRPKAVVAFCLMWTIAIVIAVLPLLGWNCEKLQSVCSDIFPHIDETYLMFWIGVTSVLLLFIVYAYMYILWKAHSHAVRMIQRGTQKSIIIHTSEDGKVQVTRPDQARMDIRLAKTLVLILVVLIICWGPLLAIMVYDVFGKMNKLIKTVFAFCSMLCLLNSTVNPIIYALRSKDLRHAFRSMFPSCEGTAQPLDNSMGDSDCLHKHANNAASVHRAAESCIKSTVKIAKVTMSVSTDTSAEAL

Consider `CC(NCC1CCOCC1)c1cnc(Nc2ccc(Cl)cc2Cl)nc1C(F)(F)F` (stereo not shown) [Example 91, (2,4-Dichlorophenyl)-(5-{1-[(tetrahydro-pyran-4-ylmethyl)-amino]-ethyl}-4-trifluoromethyl-pyrimidin-2-yl)-amine], for which the EC50 in test [1] is below 300 nM; in test [2], 300 to 1000 nM. Further, the results for the Emax in test [1] and in test [2] (read-out: efficacy (Emax relative to HU210) at the cloned human CB1 receptor) were above 50% and 50 to 100%, respectively.

For the compound `CC(NCC1CC1)c1cnc(Nc2cccc(F)c2)nc1C(F)(F)F` (stereo not shown) [Example 94, (3-Fluorophenyl)-{5-[1-(cyclopropylmethyl-amino)-ethyl]-4-trifluoromethyl-pyrimidin-2-yl}-amine, formate], in test [1] (setting [3]), the half-maximal effective concentration (EC50) was below 300 nM. Also, the Emax in test [1] (yeast agonist assay) was above 50%.

Regarding `CC(NCC1CCOCC1)c1cnc(Nc2cccc(Cl)c2)nc1C(F)(F)F` (stereo not shown) [Example 88, (3-Chlorophenyl)-(5-{1-[(tetrahydro-pyran-4-ylmethyl)-amino]-ethyl}-4-trifluoromethyl-pyrimidin-2-yl)-amine, formate], in test [1] (setting [3]), the EC50 is below 300 nM. The Emax in test [1] (yeast agonist assay) is above 50%.

As to `CC(NC1CC1)c1cnc(Nc2cccc(Cl)c2)nc1C(F)(F)F` (stereo not shown) [Example 85], in test [1], the EC50 was below 300 nM and the Emax was above 50%.

With `CCC(C)NCc1cnc(Nc2cccc(Cl)c2)nc1C(F)(F)F` (stereo not shown) [Example 48, [5-(sec-Butylamino-methyl)-4-trifluoromethyl-pyrimidin-2-yl]-(3-chloro-phenyl)-amine, formate], the Emax in test [1] is above 50%. For the same compound, in test [1] (setting [3]), the EC50 fell in the range of 300 to 1000 nM.

In the case of `CC(C)(C)CNCc1cnc(Nc2cccc(Cl)c2)nc1C(F)(F)F` [Example 20, (3-Chlorophenyl)-{5-[(2,2-dimethylpropylamino)-methyl]-4-trifluoromethyl-pyrimidin-2-yl}-amine], in test [1], the half-maximal effective concentration (EC50) was below 300 nM and the Emax was above 50%.

On to `CC(C)(C)c1nc(Nc2cccc(Cl)c2)ncc1CNCC1CC1` [Example 103, (4-tert-Butyl-5-[(cyclopropylmethyl-amino)-methyl]-pyrimidin-2-yl}-(3-chloro-phenyl)-aminehydrocholoride], for which the EC50 in test [1] (setting [3]) was below 300 nM. Besides, the Emax in test [1] (yeast agonist assay) is above 50%.

As to `CC(C)CNCc1cnc(Nc2cccc(Cl)c2)nc1C(F)(F)F` [Example 11, (3-Chlorophenyl){5-[(isobutylamino)-methyl]-4-trifluoromethyl-pyrimidin-2yl}-amine, formate], the EC50 in test [1] (setting [3]) was below 300 nM. The Emax in test [1] (yeast agonist assay) was above 50%.

`Clc1cccc(Nc2ncc(CNCC3CC3)c(C3CC3)n2)c1` [Example 3, (3-Chloro-phenyl)-{4-cyclopropyl-5-[(cyclopropylmethyl-amino)-methyl]-pyrimidin-2-yl}-amineacetate]: in test [1] (setting [3]), the EC50 was below 300 nM. In addition, in test [1] (yeast agonist assay), the maximal response (Emax) is above 50%.

On to `COCCN(CCOC)Cc1cnc(Nc2cccc(Cl)c2)nc1C(F)(F)F` [Example 83, (5-{[Bis-(2-methoxy-ethyl)-amino]-methyl}-4-trifluoromethyl-pyrimidin-2-yl)-(3-chlorophenyl)-amine], for which the “potency or efficacy at the CB2 receptor (in words)” value in test [1] was “no appreciable potency or efficacy”; in test [1] (listed as (5-{[Bis-(2-methoxy-ethyl)-amino]-methyl}-4-trifluoromethyl-pyrimidin-2-yl)-(3-c)), “do not appear to have any potency or efficacy”.

Take `CC(C)CCNCc1cnc(Nc2cccc(F)c2)nc1C(F)(F)F` [Example 55, (3-Fluorophenyl)-{5-[(3-methylbutylamino)-methyl]-4-trifluoromethyl-pyrimidin-2-yl}-amine]: the Emax in test [1] is above 50%. The EC50 in test [1] (setting [3]) was in the range of 300 to 1000 nM.

On to `CC(C)c1nc(Nc2cccc(Cl)c2)ncc1CNCC1CC1` [Example 7, (3-Chloro-phenyl)-{5-[(cyclopropylmethyl-amino)-methyl]-4-isopropyl-pyrimidin-2-yl}-amine hydrochloride], for which the EC50 in test [1] (setting [3]) is below 300 nM. Also, the Emax in test [1] (yeast agonist assay) was above 50%.

As to `CC(C)c1nc(Nc2cccc(Cl)c2)ncc1CNCC1CCCC1` [Example 8, (3-Chloro-phenyl)-{5-[(cyclopentylmethyl-amino)-methyl]-4-isopropyl-pyrimidin-2-yl}-amine hydrochloride], in test [1] (setting [3]), the half-maximal effective concentration (EC50) is below 300 nM. In test [1] (yeast agonist assay), the Emax is above 50%.

For the compound `FC(F)(F)c1nc(Nc2cccc(Cl)c2)ncc1CNCC1CCCC1` [Example 10, (3-Chlorophenyl){5-[(cyclopentylmethylamino)-methyl]-4 trifluoromethyl-pyrimidin-2-yl}-amine, formate], the EC50 in test [1] (setting [3]) was below 300 nM. Moreover, the Emax in test [1] (yeast agonist assay) was above 50%.

As for `FC(F)(F)c1nc(Nc2cccc(Cl)c2)ncc1CNC1CCC1` [Example 21, (3-Chlorophenyl)-(5-cyclobutylaminomethyl-4-trifluoromethyl-pyrimidin-2-yl)-amine], in test [1], the EC50 was below 300 nM and the Emax is above 50%.

Regarding `CC(C)c1nc(Nc2cccc(Cl)c2)ncc1CNC1CCC1` [Example 98, (3-Chloro-phenyl)-{5-[(cyclobutylamino)-methyl]-4-isopropyl-pyrimidin-2-yl}-amine hydrochloride], in test [1] (setting [3]), the concentration giving a half-maximal response (EC50) is below 300 nM. Also, the Emax in test [1] (yeast agonist assay) is above 50%.

As for `COCCNCc1cnc(Nc2cccc(Cl)c2)nc1C(C)(C)C` [Example 101, (4-tert-Butyl-5-[(2-methoxy-ethylamino)-methyl]-pyrimidin-2-yl}-(3-chloro-phenyl)-aminehydrochloride], the Emax in test [1] is above 50%. Also, the EC50 in test [1] (setting [3]) was below 300 nM.

On to `Fc1ccc(Nc2ncc(CNCC3CC3)c(C(F)(F)F)n2)cc1Cl` [Example 13, (3-Chloro-4-fluoro-phenyl)-{5-[(cyclopropylmethyl-amino)-methyl]-4-trifluoromethyl-pyrimidin-2-yl}-amine hydrochloride], for which, in test [1], the EC50 was below 300 nM and the maximal effect (Emax) is above 50%.

Consider `Fc1cccc(Nc2ncc(CNCC3CCC3)c(C(F)(F)F)n2)c1` [Example 37, (3-Fluorophenyl)-{5-[(cyclobutylmethylamino)-methyl]-4-trifluoromethyl-pyrimidin-2-yl}-amine,formate], for which, in test [1] (setting [3]), the 50% effective concentration (EC50) was below 300 nM. In test [1] (yeast agonist assay), the Emax is above 50%.
